Data: article PMC7441158 (Nature Communications, 2020)
One block for each compound: values may come before it.

Tests used:
[1] = system: dipeptidyl peptidase IV (DPP-IV); assay: DPP-IV (R&D Systems) in 50 mM Tris, pH 8.0; conditions: 37 °C, up to 24 h
[2] = system: neprilysin (NEP); assay: NEP (R&D Systems) in 50 mM Tris, 0.05% Brij-35, pH 9.0; conditions: 37 °C, up to 24 h
[3] = cited from earlier work
[4] = target: T1, neprilysin (NEP) (Homo sapiens, UniProt P08473); assay: In vitro degradation by neprilysin, MALDI-TOF timecourse assay; format: in vitro ADME; conditions: sialylated ST O-glycan structure, 15 µM peptide, 37 °C, pH 9.0, NEP 20 ng/μL (PYY), 150 pg/μL (GAL)
T1 construct: purchased R&D Systems
T1 sequence (P08473 whole entry, species assumed): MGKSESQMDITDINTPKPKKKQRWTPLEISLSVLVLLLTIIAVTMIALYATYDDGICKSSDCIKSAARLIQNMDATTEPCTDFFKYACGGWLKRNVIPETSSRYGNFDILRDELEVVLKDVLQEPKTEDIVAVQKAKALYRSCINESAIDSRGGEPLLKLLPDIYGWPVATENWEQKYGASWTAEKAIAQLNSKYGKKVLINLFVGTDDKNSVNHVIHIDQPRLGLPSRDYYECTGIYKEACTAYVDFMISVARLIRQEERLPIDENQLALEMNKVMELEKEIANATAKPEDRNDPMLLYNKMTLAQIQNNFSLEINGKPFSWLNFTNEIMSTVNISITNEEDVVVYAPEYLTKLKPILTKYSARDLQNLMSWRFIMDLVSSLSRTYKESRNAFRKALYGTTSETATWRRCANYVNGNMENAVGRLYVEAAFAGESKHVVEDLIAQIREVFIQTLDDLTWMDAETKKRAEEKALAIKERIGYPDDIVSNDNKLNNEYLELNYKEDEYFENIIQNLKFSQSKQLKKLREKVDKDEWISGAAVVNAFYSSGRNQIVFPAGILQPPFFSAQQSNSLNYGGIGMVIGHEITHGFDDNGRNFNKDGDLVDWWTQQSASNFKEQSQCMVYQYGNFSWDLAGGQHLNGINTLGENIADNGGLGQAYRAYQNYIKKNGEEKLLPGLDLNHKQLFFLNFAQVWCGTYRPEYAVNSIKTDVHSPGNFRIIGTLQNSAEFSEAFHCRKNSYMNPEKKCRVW

[5] = Half-life of native and glycosylated GLP-1 isoforms in rats; conditions: anesthetized male Wistar rats, i.v. bolus 20 nmol/kg; for half-life t1/2 in circulation: n = 8 per group, total GLP-1 in plasma (assay against amidated C-terminus: intact 7–36 amide and metabolites), one-phase decay, linear model on ln-transformed data; for detectability in circulation after injection (in words): total GLP-1 assay, plasma sampled up to 60 min
Experimental: Male Wistar rats (≈250 g) were obtained from Janvier (Saint Berthevin Cedex, France) and housed in pairs under standard conditions with ad libitum access to chow and water. Rats were acclimatized for at least 1 week before the study. Studies were carried out on two occasions, matching on each occasion the number of rats in each group, while at the same time avoiding rats from the same cage receiving the same test solution. […] On the day of study, non-fasted rats were anesthetized by a subcutaneous injection with Hypnorm/Midazolam (0.3 ml per 100 g body weight) and placed on a heated operating table (37 °C). The abdominal cavity was opened by a midline incision and a plastic catheter was inserted in the portal vein. Blood was collected (∼300 µl per timepoint) through the catheter into ice cold EDTA-coated tubes that were immediately placed one ice. Samples were collected at timepoint −5, 0, 1, 2, 5, 10, 15, 25, 45, and 60 min. In between samples, ∼200 µL PBS were injected to flush the catheter and replace lost fluid. […] At end of study, rats were sacrificed by diaphragm perforation.
Only data points represented by n > 4 were included in the analysis. To test the difference in rate constant (k), a multiple linear model (lm) was fitted to the pooled data with glycoform set as interaction (lm, Concentration ∼ Timepoint * Glycoform).

[6] = intact GLP-1 (7–36 amide); cited from earlier work

- not cleaved [1]: −: not susceptible to degradation
- not cleaved [2]: −: not susceptible to degradation
Compound: HAEGTFTSDVSSYLEGQAAKEFIAWLVKGR
- fragment found [3]: 9–36 amide, major

- full-length peptide after incubation with NEP (in words) [4]: readily detectable after 24 h
Compound: CC(=O)N[C@H]1[C@@H](OC[C@H](NC(=O)[C@H](Cc2ccccc2)NC(=O)[C@H](CO)NC(=O)[C@H](CCCNC(=N)N)NC(=O)[C@H](Cc2c[nH]cn2)NC(=O)[C@H](CC(N)=O)NC(=O)CNC(=O)[C@@H](NC(=O)[C@H](C)NC(=O)[C@H](Cc2c[nH]cn2)NC(=O)[C@@H]2CCCN2C(=O)CNC(=O)[C@H](CC(C)C)NC(=O)[C@H](CC(C)C)NC(=O)[C@H](Cc2ccc(O)cc2)NC(=O)CNC(=O)[C@H](C)NC(=O)[C@H](CO)NC(=O)[C@H](CC(N)=O)NC(=O)[C@H](CC(C)C)NC(=O)[C@@H](NC(=O)[C@H](Cc2c[nH]c3ccccc23)NC(=O)CN)[C@@H](C)O)C(C)C)C(=O)N[C@@H](CC(=O)O)C(=O)N[C@@H](CCCCN)C(=O)N[C@@H](CC(N)=O)C(=O)NCC(=O)N[C@@H](CC(C)C)C(=O)N[C@H](C(=O)N[C@@H](CO)C(=O)O)[C@@H](C)O)O[C@H](CO)[C@H](O)[C@@H]1O[C@@H]1O[C@H](CO)[C@H](O)[C@H](O[C@]2(C(=O)O)C[C@H](O)[C@@H](NC(C)=O)[C@H]([C@H](O)[C@H](O)CO)O2)[C@H]1O [Galanin ST]

- half-life t1/2 in circulation [5]: 22.7 min
Compound: CC[C@H](C)[C@H](NC(=O)[C@H](Cc1ccccc1)NC(=O)[C@H](CCC(=O)O)NC(=O)[C@H](CCCCN)NC(=O)[C@H](C)NC(=O)[C@H](C)NC(=O)[C@H](CCC(N)=O)NC(=O)CNC(=O)[C@H](CCC(=O)O)NC(=O)[C@H](CC(C)C)NC(=O)[C@H](Cc1ccc(O)cc1)NC(=O)[C@H](CO)NC(=O)[C@H](CO)NC(=O)[C@@H](NC(=O)[C@H](CC(=O)O)NC(=O)[C@H](CO)NC(=O)[C@@H](NC(=O)[C@H](Cc1ccccc1)NC(=O)[C@@H](NC(=O)CNC(=O)[C@H](CCC(=O)O)NC(=O)[C@H](C)NC(=O)[C@@H](N)Cc1c[nH]cn1)[C@@H](C)O)[C@@H](C)O[C@H]1O[C@H](CO)[C@H](O)[C@H](O[C@@H]2O[C@H](CO)[C@H](O)[C@H](O[C@]3(C(=O)O)C[C@H](O)[C@@H](NC(C)=O)[C@H]([C@H](O)[C@H](O)CO)O3)[C@H]2O)[C@H]1NC(C)=O)C(C)C)C(=O)N[C@@H](C)C(=O)N[C@@H](Cc1c[nH]c2ccccc12)C(=O)N[C@@H](CC(C)C)C(=O)N[C@H](C(=O)N[C@@H](CCCCN)C(=O)NCC(=O)N[C@@H](CCCNC(=N)N)C(N)=O)C(C)C [GLP-1 ST]
- detectability in circulation after injection (in words) [5]: readily detectable in circulation even after 60 min

Compound: CC[C@H](C)[C@H](NC(=O)[C@H](Cc1ccccc1)NC(=O)[C@H](CCC(=O)O)NC(=O)[C@H](CCCCN)NC(=O)[C@H](C)NC(=O)[C@H](C)NC(=O)[C@H](CCC(N)=O)NC(=O)CNC(=O)[C@H](CCC(=O)O)NC(=O)[C@H](CC(C)C)NC(=O)[C@H](Cc1ccc(O)cc1)NC(=O)[C@H](CO)NC(=O)[C@H](CO)NC(=O)[C@@H](NC(=O)[C@H](CC(=O)O)NC(=O)[C@H](CO)NC(=O)[C@@H](NC(=O)[C@H](Cc1ccccc1)NC(=O)[C@@H](NC(=O)CNC(=O)[C@H](CCC(=O)O)NC(=O)[C@H](C)NC(=O)[C@@H](N)Cc1c[nH]cn1)[C@@H](C)O)[C@@H](C)O)C(C)C)C(=O)N[C@@H](C)C(=O)N[C@@H](Cc1c[nH]c2ccccc12)C(=O)N[C@@H](CC(C)C)C(=O)N[C@H](C(=O)N[C@@H](CCCCN)C(=O)NCC(=O)N[C@@H](CCCNC(=N)N)C(N)=O)C(C)C [GLP-1, glucagon-like peptide 1, reference compound]
- half-life t1/2 in circulation [5]: 2.7 min
- detectability in circulation after injection (in words) [5]: undetectable after the 15 min timepoint
- half-life in circulation, literature [6]: ~ 2 min
